Measured values reported in article PMC4340503 (Nature, 2008).
Where a SMILES comes first, the peptide text is derived from it. [ ]: non-standard residue; d: D form. The star is where a group is joined. X1 = CCCCCCCCCCCCCCCC(=O)OC[C@H](COP(=O)(O)OCCNC(=O)CCCc1ccc(N2C(=O)CC(*)C2=O)cc1)OC(=O)CCCCCCCCCCCCCCC; pS = N[C@@H](COP(=O)(O)O)C(=O)O

Columns and labels:
[1] = target: AP2 core σ2V88D (UniProt P17427+P62743+P63010+P84092, V88D); type: binding; settings: pH 8.7
[2] = target: AP2 core σ2L103S (UniProt P17427+P62743+P63010+P84092, L103S); type: binding; settings: pH 8.7
Chain of AP2 core σ2L103S (P62743 whole entry L103S): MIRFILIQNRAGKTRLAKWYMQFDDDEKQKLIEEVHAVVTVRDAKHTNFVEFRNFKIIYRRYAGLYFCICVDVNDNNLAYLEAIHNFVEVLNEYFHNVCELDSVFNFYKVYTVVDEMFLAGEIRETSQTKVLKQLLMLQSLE
Chain of AP2 core σ2L103S (P84092 whole entry): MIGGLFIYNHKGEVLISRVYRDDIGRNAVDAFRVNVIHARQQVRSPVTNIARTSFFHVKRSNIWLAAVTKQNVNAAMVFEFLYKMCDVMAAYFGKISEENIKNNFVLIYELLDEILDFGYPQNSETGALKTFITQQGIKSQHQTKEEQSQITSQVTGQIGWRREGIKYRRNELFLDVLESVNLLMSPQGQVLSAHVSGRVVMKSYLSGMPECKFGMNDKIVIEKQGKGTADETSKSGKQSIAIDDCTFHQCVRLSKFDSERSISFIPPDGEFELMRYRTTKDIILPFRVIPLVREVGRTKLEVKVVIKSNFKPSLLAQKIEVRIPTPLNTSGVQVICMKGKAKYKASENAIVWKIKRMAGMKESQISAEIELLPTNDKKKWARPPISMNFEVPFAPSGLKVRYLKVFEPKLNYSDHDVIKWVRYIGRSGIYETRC
Chain of AP2 core σ2L103S (P17427 1-621): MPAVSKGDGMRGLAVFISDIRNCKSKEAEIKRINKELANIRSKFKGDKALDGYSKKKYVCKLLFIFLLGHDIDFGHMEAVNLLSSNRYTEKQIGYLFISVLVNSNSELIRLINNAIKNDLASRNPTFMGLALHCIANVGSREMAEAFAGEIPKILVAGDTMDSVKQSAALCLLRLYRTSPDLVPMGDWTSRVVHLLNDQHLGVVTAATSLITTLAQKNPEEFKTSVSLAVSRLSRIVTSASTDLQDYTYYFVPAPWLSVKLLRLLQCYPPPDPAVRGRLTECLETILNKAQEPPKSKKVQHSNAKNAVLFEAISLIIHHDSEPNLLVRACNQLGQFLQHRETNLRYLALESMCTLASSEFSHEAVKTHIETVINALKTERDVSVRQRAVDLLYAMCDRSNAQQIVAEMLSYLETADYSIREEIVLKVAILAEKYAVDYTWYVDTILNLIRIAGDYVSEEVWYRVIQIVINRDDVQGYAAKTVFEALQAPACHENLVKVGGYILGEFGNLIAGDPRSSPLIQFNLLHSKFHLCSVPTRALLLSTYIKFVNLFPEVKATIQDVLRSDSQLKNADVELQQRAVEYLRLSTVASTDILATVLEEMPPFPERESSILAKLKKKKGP
Chain of AP2 core σ2L103S (P63010 1-591): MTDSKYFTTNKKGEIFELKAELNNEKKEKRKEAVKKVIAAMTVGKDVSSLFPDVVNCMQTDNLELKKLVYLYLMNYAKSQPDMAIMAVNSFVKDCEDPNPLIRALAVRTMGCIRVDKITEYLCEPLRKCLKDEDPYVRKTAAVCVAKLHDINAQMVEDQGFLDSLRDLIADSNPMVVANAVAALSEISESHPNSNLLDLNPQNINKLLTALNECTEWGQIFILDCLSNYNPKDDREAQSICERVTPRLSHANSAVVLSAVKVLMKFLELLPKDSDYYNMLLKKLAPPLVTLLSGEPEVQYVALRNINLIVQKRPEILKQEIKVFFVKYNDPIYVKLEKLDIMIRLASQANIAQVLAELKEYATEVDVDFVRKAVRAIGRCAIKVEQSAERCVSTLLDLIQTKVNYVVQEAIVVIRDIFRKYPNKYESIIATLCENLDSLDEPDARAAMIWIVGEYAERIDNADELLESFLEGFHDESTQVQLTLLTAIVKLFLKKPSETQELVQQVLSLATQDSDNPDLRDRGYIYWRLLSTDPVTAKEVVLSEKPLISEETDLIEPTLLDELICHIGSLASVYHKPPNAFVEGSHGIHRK

Chain of AP2 core σ2V88D (P62743 whole entry V88D): as the sequence (P62743 whole entry L103S) above, with V88D, S103L counted along it
Chain of AP2 core σ2V88D (P63010 1-591, stated change not applied): as the sequence (P63010 1-591) above
Chain of AP2 core σ2V88D (P84092 whole entry, stated change not applied): as the sequence (P84092 whole entry) above
Chain of AP2 core σ2V88D (P17427 1-621): as the sequence (P17427 1-621) above

CCCCCCCCCCCCCCCC(=O)OC[C@H](COP(=O)(O)OCCNC(=O)CCCc1ccc(N2C(=O)CC(SC[C@H](N)C(=O)N[C@@H](Cc3c[nH]cn3)C(=O)N[C@@H](CCCNC(=N)N)C(=O)N[C@@H](CCCNC(=N)N)C(=O)N[C@@H](CCCNC(=N)N)C(=O)N[C@@H](CCC(N)=O)C(=O)N[C@@H](C)C(=O)N[C@@H](CCC(=O)O)C(=O)N[C@@H](CCCNC(=N)N)C(=O)N[C@@H](CCSC)C(=O)N[C@@H](COP(=O)(O)O)C(=O)N[C@@H](CCC(N)=O)C(=O)N[C@H](C(=O)N[C@@H](CCCCN)C(=O)N[C@@H](CCCNC(=N)N)C(=O)N[C@@H](CC(C)C)C(=O)N[C@@H](CC(C)C)C(=O)N[C@@H](CO)C(=O)N[C@@H](CCC(=O)O)C(=O)N[C@@H](CCCCN)C(=O)O)[C@@H](C)CC)C2=O)cc1)OC(=O)CCCCCCCCCCCCCCC (some centres unmarked) [phospho-CD4 Q-peptide] (H-C(X1)HRRRQAERM[pS]QIKRLLSEK-OH; N-terminus and C-terminus assumed)
KD [1]: below detectable levels
KD [2]: below detectable levels
